Assay results from the NIST ThermoML archive (doi:10.1021/je501065g).
Numbers after ± are expanded uncertainties.

Conditions: Liquid, Pulse-echo method

c1ccccc1 [benzene]
Conditions	speed of sound [m/s]
283.2 K, 102.1 kPa	1372 ± 0.83
283.2 K, 5280.1 kPa	1396 ± 0.84
283.2 K, 10234 kPa	1418.2 ± 0.85
283.2 K, 15332 kPa	1439.9 ± 0.86
283.2 K, 20204 kPa	1460.2 ± 0.87
283.2 K, 24857 kPa	1479 ± 0.88
283.21 K, 29815 kPa	1498.1 ± 0.89
298.2 K, 84.2 kPa	1299.7 ± 0.79
298.2 K, 5421.7 kPa	1327 ± 0.81
298.2 K, 10069 kPa	1349.5 ± 0.82
298.2 K, 14866 kPa	1371 ± 0.83
298.2 K, 20104 kPa	1394.3 ± 0.84
298.2 K, 25018 kPa	1415.8 ± 0.85
298.2 K, 30106 kPa	1436.9 ± 0.86
313.2 K, 61.2 kPa	1230.4 ± 0.76
313.2 K, 5536.5 kPa	1259.8 ± 0.77
313.2 K, 10140 kPa	1283.5 ± 0.78
313.2 K, 15332 kPa	1309 ± 0.8
313.2 K, 20194 kPa	1332.2 ± 0.81
313.2 K, 25204 kPa	1354.8 ± 0.82
313.2 K, 29980 kPa	1375.7 ± 0.83
333.21 K, 153.7 kPa	1139.7 ± 0.72
333.21 K, 5378.8 kPa	1171.4 ± 0.73
333.21 K, 10149 kPa	1198.3 ± 0.74
333.21 K, 15038 kPa	1225 ± 0.76
333.21 K, 19601 kPa	1248.5 ± 0.77
333.21 K, 24756 kPa	1274 ± 0.78
333.21 K, 30146 kPa	1299.2 ± 0.79
353.2 K, 15092 kPa	1146.6 ± 0.72
353.2 K, 19918 kPa	1173.2 ± 0.73
353.21 K, 172.3 kPa	1052.2 ± 0.68
353.21 K, 5094.9 kPa	1084.9 ± 0.69
353.21 K, 10007 kPa	1116.2 ± 0.7
353.21 K, 24680 kPa	1198.7 ± 0.74
353.21 K, 30063 kPa	1226 ± 0.76

CCO [ethanol]
Conditions	speed of sound [m/s]
253.22 K, 104.2 kPa	1304.8 ± 0.7
253.22 K, 130.2 kPa	1305.1 ± 0.7
253.22 K, 5018.8 kPa	1330.4 ± 0.71
253.22 K, 5283.4 kPa	1331.5 ± 0.71
253.22 K, 10112 kPa	1355.4 ± 0.72
253.22 K, 10246 kPa	1355.8 ± 0.72
253.22 K, 15106 kPa	1379.1 ± 0.73
253.22 K, 15229 kPa	1379.4 ± 0.73
253.22 K, 19991 kPa	1401.4 ± 0.74
253.22 K, 20403 kPa	1402.9 ± 0.74
253.22 K, 24921 kPa	1422.9 ± 0.75
253.22 K, 25022 kPa	1423.6 ± 0.75
253.22 K, 30114 kPa	1444.8 ± 0.76
253.23 K, 30052 kPa	1444.5 ± 0.76
273.2 K, 99.9 kPa	1230.8 ± 0.67
273.2 K, 5193.3 kPa	1259.3 ± 0.69
273.2 K, 10100 kPa	1285.4 ± 0.7
273.2 K, 15284 kPa	1311.7 ± 0.7
273.2 K, 20253 kPa	1336 ± 0.72
273.2 K, 25058 kPa	1358.8 ± 0.72
273.2 K, 25221 kPa	1359.3 ± 0.72
273.2 K, 30203 kPa	1381.6 ± 0.73
273.21 K, 128.6 kPa	1231.1 ± 0.67
273.21 K, 5026.6 kPa	1258.5 ± 0.68
273.21 K, 10148 kPa	1285.8 ± 0.7
273.21 K, 15029 kPa	1310.8 ± 0.7
273.21 K, 20070 kPa	1335.2 ± 0.71
273.21 K, 30338 kPa	1382.2 ± 0.73
293.2 K, 103.7 kPa	1160 ± 0.63
293.2 K, 5339.4 kPa	1192 ± 0.65
293.2 K, 10368 kPa	1220.8 ± 0.66
293.2 K, 15197 kPa	1247.2 ± 0.68
293.2 K, 20222 kPa	1273.4 ± 0.69
293.2 K, 25256 kPa	1298.5 ± 0.7
293.2 K, 30069 kPa	1321.4 ± 0.7
293.21 K, 140 kPa	1160.4 ± 0.63
293.21 K, 5169 kPa	1191 ± 0.65
293.21 K, 9977.3 kPa	1218.7 ± 0.66
293.21 K, 15052 kPa	1246.6 ± 0.67
293.21 K, 20101 kPa	1272.9 ± 0.68
293.21 K, 25034 kPa	1297.5 ± 0.69
293.21 K, 30268 kPa	1322.5 ± 0.71
313.21 K, 103.8 kPa	1091.9 ± 0.61
313.21 K, 121.8 kPa	1092.3 ± 0.61
313.21 K, 5023.3 kPa	1124.7 ± 0.62
313.21 K, 5318.6 kPa	1126.5 ± 0.62
313.21 K, 10011 kPa	1155.8 ± 0.63
313.21 K, 10351 kPa	1157.8 ± 0.64
313.21 K, 14993 kPa	1185.1 ± 0.64
313.21 K, 15238 kPa	1186.6 ± 0.65
313.21 K, 20052 kPa	1213.5 ± 0.66
313.21 K, 20317 kPa	1214.8 ± 0.66
313.21 K, 25163 kPa	1240.5 ± 0.67
313.21 K, 25383 kPa	1241.6 ± 0.67
313.21 K, 30116 kPa	1265.6 ± 0.68
313.21 K, 30384 kPa	1266.8 ± 0.68
333.21 K, 104.1 kPa	1024.9 ± 0.59
333.21 K, 137.3 kPa	1025.2 ± 0.59
333.21 K, 5087.6 kPa	1061.2 ± 0.6
333.21 K, 5212.7 kPa	1062.1 ± 0.6
333.21 K, 10090 kPa	1095 ± 0.61
333.21 K, 10228 kPa	1095.9 ± 0.61
333.21 K, 15025 kPa	1126.4 ± 0.62
333.21 K, 15294 kPa	1127.9 ± 0.62
333.21 K, 19954 kPa	1155.9 ± 0.63
333.21 K, 20181 kPa	1157.1 ± 0.64
333.21 K, 24959 kPa	1184.2 ± 0.64
333.21 K, 25377 kPa	1186.4 ± 0.65
333.21 K, 30028 kPa	1211.3 ± 0.66
333.21 K, 30214 kPa	1212.3 ± 0.66
353.2 K, 103.5 kPa	957.73 ± 0.55
353.21 K, 132.1 kPa	957.59 ± 0.55
353.21 K, 5006 kPa	996.76 ± 0.57
353.21 K, 5137.5 kPa	997.75 ± 0.57
353.21 K, 10089 kPa	1034.4 ± 0.58
353.21 K, 10319 kPa	1035.9 ± 0.58
353.21 K, 15035 kPa	1068.3 ± 0.6
353.21 K, 15211 kPa	1069.4 ± 0.6
353.21 K, 20108 kPa	1100.9 ± 0.61
353.21 K, 20273 kPa	1101.7 ± 0.61
353.21 K, 25007 kPa	1130.5 ± 0.62
353.21 K, 25250 kPa	1131.8 ± 0.62
353.21 K, 30102 kPa	1159.5 ± 0.63
353.21 K, 30289 kPa	1160.5 ± 0.63
